# Assay results as given in US10399931B2, “Octahydroanthracene compound, preparation method and application thereof” (SHANDONG XINHUA PHARMACEUTICAL CO., LTD., priority 2016, dated 2019).
# Key:
# Format in all cases: in vivo
# [1] = system: Aβ metabolizing enzymes NEP and IDE; assay: Expression of Aβ metabolizing enzymes in the brain of APP/PS1 mice
# Procedure: After the behavioral experiment, the animals were anesthetized with an intraperitoneal injection of 3.5% chloral hydrate and cut off the heads quickly to take out the brains. The hippocampus and cortex of the brain were separated on ice, and then weighed and quickly frozen with liquid nitrogen, placed in a refrigerator at −80° C. for standby application.
# The tissue lysate (5 μL PMSF protease inhibitor per mL of lysate) was added to the frozen brain tissue at a ratio of […] (6 mL/g tissue), and ultrasonically homogenized in an ice bath. After homogenization, the tissue homogenate was placed in crushed ice for 30 min, and then centrifuged at 12,000×g for 20 min at 4° C. The supernatant (about 200 μL) was taken and stored in a refrigerator at −80° C. for later use. A portion of the supernatant was taken for protein quantification.
# Grayscale scanning of the X film was performed and the results were analyzed by the image analysis software of Quantity One 4.6.2. Differences and changes in the expression of the detected proteins between the groups were determined using β-actin as an internal reference. The relative value was calculated by the formula.
# microglia = assay: Phagocytosis of β-amyloid protein by microglia in APP/PS1 mice
# Procedure: • 4.3.1. Immersing the paraffin sections in xylene to dewax for 15 min, and 2 times in total; then immersing in gradient alcohols with a gradient of 100%, 100%, 95%, 90%, 85% and 75%, each for 5 min. • 4.3.2. Microwave antigen retrieval: immersing the sections in 0.01 M citrate buffer (pH 6.0), heating to boiling in a microwave oven, and repeating twice; after natural cooling, washing 2 times with PBS for 5 min each time. • 4.3.3. Blocking endogenous peroxidase: blotting around the brain tissue with filter paper, outlining the brain tissue with a PAP pen. Adding dropwise the peroxidase blocker, incubating for 10 min at room temperature, and washing 3 times with PBS for 5 min each time. • 4.3.4. Adding dropwise normal serum blocking solution diluted with 0.01M PBS at a ratio of 1:10, standing at room temperature for 20 min, shaking off the excess liquid and not washing. • 4.3.5. Adding dropwise the primary antibody diluted with 0.01 M PBS, keeping at 4° C. overnight; washing 3 times with 0.01 M PBS for 2 min each time. • 4.3.6. […] Sealing with water-soluble sealant; observing by fluorescence microscopy. […] Washing 3 times with the PBS on a shaker in a dark for 3 min each time; sealing with the water-soluble sealant, and observing by fluorescence microscope. […]
# [2] = system: APP/PS1 double transgenic AD model mice; assay: Pathology of hippocampal CA1 neurons in APP/PS1 mice
# mice = assay: LD50 test, single intragastric dose (preliminary safety evaluation); details: 5000 mg/kg intragastric
smiles,measurement,setting,value
"CC1(C)CCC(C)(C)c2c1cc1c(c2NC(=O)c2ccc(NC(=O)NCCN)cc2)C(C)(C)CCC1(C)C [OAB-14, 1-(2-amino) ethyl-3-{4-[(1,1,4,4,5,5,8,8-octamethyl-1,2,3,4,5,6,7,8-octahydro-9-anthryl)carbamoyl]phenyl} urea]",Expression of Aβ metabolizing enzymes NEP and IDE in the brain,[1],increasing the expression
same,Phagocytosis of microglia in the central nervous system to β-amyloid protein,microglia,promoting the phagocytosis
same,Morphology of hippocampal CA1 neurons,[2]; 100 mg/kg group,"closely arranged, no visible edema and nuclear pyknosis"
same,Morphology of hippocampal CA1 neurons,[2]; 200 mg/kg group,"closely arranged, no visible edema and nuclear pyknosis"
same,"Abnormalities in organs such as heart, liver, spleen and kidney",mice,no abnormalities were detected
same,Adverse reactions observed with the naked eye,mice,no visible adverse reactions were observed
